In US20240409536A1, “COMPOUNDS AND METHODS FOR MODULATING SPLICING” (REMIX THERAPEUTICS INC., priority 2021, published 2024):

Assays:
[1] = system: HTT mRNA; test: Gene panel canonical junction qPCR assay, HTT CJ mRNA decrease; assay type: cell-based, human; conditions: Homo sapiens, canonical junction qPCR, read-out: HTT IC50 (decrease in CJ mRNA levels)
Outline: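 A673 or K562 cells treated with compound; canonical exon-exon junction mRNA quantified by cDNA synthesis and RT-qPCR with junction-spanning primer/probe, normalized to GAPDH, GUSB or PPIA and DMSO (2^(−ΔΔCt)). Percent response from set ΔCt assay windows fitted to 4-parameter logistic; IC50 for CJ decrease.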

[2] = system: Target C; test: HiBiT protein abundance assay, Target C (K562 HiBiT knock-in cells); assay type: cell-based, human; conditions: 24 hours
Outline: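 K562 knock-in cells (10000/well, IMDM+1% FBS) treated 24 h at 37 °C with 10-point 3-fold dilutions, top final 10 μM, DMSO ≤0.25%. HiBiT lytic luminescence read; response normalized to unmodified K562 and DMSO-treated controls. IC50 interpolated at 50% abundance by four-parameter logistic fit.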

Structure (SMILES) | IC50 [1] | IC50 [2]
COc1nc(NC(=O)c2ccc(N3C[C@@H](C)N[C@@H](C)C3)c3nccnc23)cn2cc(C)nc12 [Compound 277] | 0.1 to 1 µM | 1 to 10 µM
Cc1cn2cc(NC(=O)c3ccc(N4C[C@@H](C)N[C@@H](C)C4)c4nccnc34)nc(Cl)c2n1 [Compound 279] | > 10 µM | > 10 µM
Cc1cn2cc(NC(=O)c3ccc(N4C[C@@H](C)N[C@@H](C)C4)c4ncc(Cl)nc34)cc(F)c2n1 [Compound 281] | > 10 µM | 1 to 10 µM
Cc1cn2cc(NC(=O)c3ccc(N4C[C@@H](C)N[C@@H](C)C4)c4ncc(N(C)C)nc34)cc(F)c2n1 [Compound 283] | 0.1 to 1 µM | 0.1 to 1 µM
Cc1cn2c(C)c(NC(=O)c3ccc(N4C[C@@H](C)N[C@@H](C)C4)c4nccnc34)cc(F)c2n1 [Compound 285] | 1 to 10 µM | 1 to 10 µM
COc1nc(NC(=O)c2ccc(N3C[C@@H](C)N[C@@H](C)C3)c3nccnc23)nc2cn(C)nc12 [Compound 287] | > 10 µM | > 10 µM
Cc1cn2cc(NC(=O)c3ccc(N4C[C@@H](C)N[C@@H](C)C4)c4nccnc34)nc(C)c2n1 [Compound 288] | 1 to 10 µM | 1 to 10 µM
C[C@@H]1CN(c2ccc(C(=O)Nc3ccc4nc(N(C)C)oc4c3)c3nccnc23)C[C@H](C)N1 [Compound 290] | > 10 µM | > 10 µM
COc1nc2ccc(NC(=O)c3ccc(N4C[C@@H](C)N[C@@H](C)C4)c4nccnc34)cc2o1 [Compound 292] | > 10 µM | 1 to 10 µM
Cc1cn2cc(NC(=O)c3ccc(N4C[C@@H](C)N[C@@H](C)C4)c4nccnc34)cc(C#N)c2n1 [Compound 294] | 1 to 10 µM | > 10 µM
CCOc1cnc2c(N3C[C@@H](C)N[C@@H](C)C3)ccc(C(=O)Nc3cc(F)c4nc(C)cn4c3)c2n1 [Compound 296] | 0.1 to 1 µM | 0.1 to 1 µM
COc1nc(NC(=O)c2ccc(N3C[C@@H](C)N[C@@H](C)C3)c3nccnc23)cc2oc(C)nc12 [Compound 298] | > 10 µM | 1 to 10 µM
COc1ncc2c(N3C[C@@H](C)N[C@@H](C)C3)ccc(C(=O)Nc3cc(F)c4nc(C)cn4c3)c2n1 [Compound 300] | 0.1 to 1 µM | 0.1 to 1 µM
Cc1cn2cc(NC(=O)c3ccc(N4C[C@@H](C)N[C@@H](C)C4)c4cncnc34)cc(F)c2n1 [Compound 302] | 1 to 10 µM | 1 to 10 µM
Cc1cn2cc(NC(=O)c3ccc(N4C[C@@H](C)N[C@@H](C)C4)c4nccnc34)cc(Cl)c2n1 [Compound 304] | 1 to 10 µM | > 10 µM
C[C@@H]1CN(c2ccc(C(=O)Nc3cc(F)c4nc(Cl)cn4c3)c3nccnc23)C[C@H](C)N1 [Compound 306] | > 10 µM | 1 to 10 µM
CNc1nc(NC(=O)c2ccc(N3C[C@@H](C)N[C@@H](C)C3)c3nccnc23)cn2cc(C)nc12 [Compound 308] | > 10 µM | > 10 µM
Cc1c(O)c(NC(=O)c2ccc(N3C[C@@H](C)N[C@@H](C)C3)c3nccnc23)cc2cn(C)nc12 [Compound 310] | > 10 µM | > 10 µM
Cc1cn2cc(NC(=O)c3ccc(N4C[C@@H](C)N[C@H](C)C4)c4nccnc34)cc(F)c2n1 [Compound 312] | 1 to 10 µM | 1 to 10 µM
Cc1cn2cc(NC(=O)c3ccc(N4C[C@H](C)N[C@@H](C)C4)c4nccnc34)cc(F)c2n1 [Compound 313] | 1 to 10 µM | 1 to 10 µM
Cc1cn2cc(NC(=O)c3ccc(N4CC[C@@H](N)C4)c4nccnc34)cc(F)c2n1 [Compound 315] | > 10 µM | 1 to 10 µM
Cc1cn2cc(NC(=O)c3ccc(NC4CCNC4)c4nccnc34)cc(F)c2n1 (stereo not drawn) [Compound 316] | > 10 µM | > 10 µM
C[C@@H]1CN(c2ccc(C(=O)Nc3cc(F)c4nn(C)cc4c3)c3nccnc23)C[C@@H](C)N1 [Compound 335] | 1 to 10 µM | 1 to 10 µM
Cc1cn2cc(NC(=O)c3ccc(N4CCC5(CCN5)C4)c4nccnc34)cc(F)c2n1 (stereo not drawn) [Compound 339] | 1 to 10 µM | 1 to 10 µM
